Drawing on patent US20120157471A1, “BENZIMIDAZOLE DERIVATIVES” (PFIZER INC., priority 2009, published 2012), this text covers inhibition and IC50 for 27 compounds.

Assay [1] addresses T1, human Smo (amino acids 181-787) (Homo sapiens, UniProt Q99835).
T1 construct: expressed in transfected cells; membrane preparation
The assay can be described thus: Smo radioligand competition binding assay (displacement of 3H-PF-03451358 from HEK293 membranes). As to conditions: for inhibition at 0.05 µM: 0.05 μM test compound, displacement of 3H-PF-03451358, read-out: SMO % inh. @ 0.05 μM; for IC50: radioligand competition binding. An outline of the steps:
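Membranes (40 μg protein/well) from HEK293 expressing murine Igk-leader-fused Smo 181-787 incubated 2 h at room temperature with 3 nM 3H-PF-03451358 in Tris pH 7.5/NaCl/MgCl2/EDTA/BSA buffer; filter-bound counts by scintillation. Nonspecific binding with 30 μM cold PF-03451358; IC50 from four-parameter fit of % inhibition.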

A further assay has as its system Gli-Luc/MEF cells (Smo). The assay can be described thus: Gli-Luc/MEF assay (Shh-stimulated luciferase reporter under the Gli response element). As to conditions: Mus musculus, MEF, 48 h. The class given is cell-based, mouse. A digest of the protocol:
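Mouse Gli-Luc/MEF cells dosed with compound (3-fold series, […]) plus 2 μg/mL recombinant mouse Shh, then incubated 48 h at 37° C, 5% CO2. Bright-Glo luminescence read; IC50 calculated from inhibition of Shh-stimulated luciferase.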

T1 sequence (Q99835 181-787): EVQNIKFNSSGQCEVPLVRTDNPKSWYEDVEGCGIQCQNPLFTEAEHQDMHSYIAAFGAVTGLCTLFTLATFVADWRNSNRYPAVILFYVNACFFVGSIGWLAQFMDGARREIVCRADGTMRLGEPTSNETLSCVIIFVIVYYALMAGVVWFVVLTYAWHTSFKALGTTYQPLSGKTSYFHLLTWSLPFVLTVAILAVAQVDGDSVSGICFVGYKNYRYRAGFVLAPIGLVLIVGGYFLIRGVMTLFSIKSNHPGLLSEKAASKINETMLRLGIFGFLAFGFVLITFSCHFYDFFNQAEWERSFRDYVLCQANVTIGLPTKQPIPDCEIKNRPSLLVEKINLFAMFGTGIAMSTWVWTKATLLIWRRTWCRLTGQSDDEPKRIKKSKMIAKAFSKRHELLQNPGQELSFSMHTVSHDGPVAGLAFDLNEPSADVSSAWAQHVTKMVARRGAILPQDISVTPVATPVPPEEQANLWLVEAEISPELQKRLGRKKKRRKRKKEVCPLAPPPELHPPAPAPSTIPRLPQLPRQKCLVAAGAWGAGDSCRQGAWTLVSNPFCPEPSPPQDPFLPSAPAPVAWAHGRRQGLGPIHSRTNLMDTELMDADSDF

`Cn1c(-c2cc(N3[C@@H]4CC[C@H]3CN(C(=O)CO)C4)ncc2Cl)nc2ccccc21` [Example A-207, 2-{(1R,5S)-8-[5-chloro-4-(1-methyl-1H-benzimidazol-2-yl)pyridin-2-yl]-3,8-diazabicyclo[3.2.1]oct-3-yl}-2-oxoethanol]: the inhibition at 0.05 µM in assay [1] was 94%. Also, the half-inhibitory concentration (IC50) in assay [1] worked out at 10 nM; with Gli-Luc/MEF cells (Smo), 17.3 nM.
In the case of `Cn1c(-c2cc(N3CCC(C(=O)NC4CCOC4)CC3)ncc2Cl)nc2ccccc21` (stereo not drawn) [Example A-208, 1-[5-chloro-4-(1-methyl-1H-benzimidazol-2-yl)pyridin-2-yl]-N-(tetrahydrofuran-3-yl)piperidine-4-carboxamide], in assay [1], the inhibition at 0.05 µM was 102% and the IC50 was 23 nM. For the same compound, the IC50 with Gli-Luc/MEF cells (Smo) turned out to be 18.1 nM.
The corresponding values for `CN(CC(C)(C)O)c1cc(-c2nc3ccccc3n2C)c(Cl)cn1` [Example A-209, 1-{[5-chloro-4-(1-methyl-1H-benzimidazol-2-yl)pyridin-2-yl](methyl)amino}-2-methylpropan-2-ol] are 97%, 18 nM and 19.6 nM.
The corresponding values for `Cn1c(-c2cc(N3CCC(F)(F)CC3)ncc2Cl)nc2ccccc21` [Example A-210, 2-[5-chloro-2-(4,4-difluoropiperidin-1-yl)pyridin-4-yl]-1-methyl-1H-benzimidazole] are 87%, 57 nM and 22 nM.
The corresponding values for `Cn1c(-c2cc(N3CC(CS(C)(=O)=O)C3)ncc2Cl)nc2ccccc21` [Example A-211, 2-(5-chloro-2-{3-[(methylsulfonyl)methyl]azetidin-1-yl}pyridin-4-yl)-1-methyl-1H-benzimidazole] are 104%, 36 nM and 28.4 nM.
As to `Cn1c(-c2cc(N3CCC(C(=O)NCC(C)(C)O)CC3)ncc2Cl)nc2ccccc21` [Example A-212, 1-[5-chloro-4-(1-methyl-1H-benzimidazol-2-yl)pyridin-2-yl]-N-(2-hydroxy-2-methylpropyl)piperidine-4-carboxamide], in assay [1], the inhibition at 0.05 µM is 99% and the 50% inhibitory concentration (IC50) turned out to be 12 nM. For the same compound, inhibition with Gli-Luc/MEF cells (Smo) was half-maximal at 29.1 nM (IC50).
On the same counts, the results for `Cn1c(-c2cc(N3CCN(CCO)CC3)ncc2Cl)nc2ccccc21` [Example A-213, 2-{4-[5-chloro-4-(1-methyl-1H-benzimidazol-2-yl)pyridin-2-yl]piperazin-1-yl}ethanol] are 83%, 78 nM and 56.8 nM.
As for `CCn1c(-c2cc(N3CCN(C(C)=O)CC3)ncc2Cl)nc2ccccc21` [Example A-214, 2-[2-(4-acetylpiperazin-1-yl)-5-chloropyridin-4-yl]-1-ethyl-1H-benzimidazole], in assay [1], the inhibition at 0.05 µM came out at 63% and the IC50 was 432 nM. The IC50 in the assay on Gli-Luc/MEF cells (Smo) was found to be 124 nM.
On to `CC(=O)N1CCN(c2cc(-c3nc4ccccc4[nH]3)c(Cl)cn2)CC1` [Example A-215, 2-[2-(4-acetylpiperazin-1-yl)-5-chloropyridin-4-yl]-1H-benzimidazole], for which, in assay [1], the inhibition at 0.05 µM amounted to 79% and the concentration for half-maximal inhibition (IC50) was determined as 189 nM. Half-maximal inhibition with Gli-Luc/MEF cells (Smo) (IC50) was put at 63 nM.
As for `Cn1c(-c2cc(N3CCC(CS(C)(=O)=O)CC3)ncc2Cl)nc2cccnc21` [Example A-216, 2-(5-chloro-2-{4-[(methylsulfonyl)methyl]piperidin-1-yl}pyridin-4-yl)-3-methyl-3H-imidazo[4,5-b]pyridine], the inhibition at 0.05 µM in assay [1] turned out to be 98%. Moreover, the IC50 was found to be 10 nM in assay [1] and 7 nM in the assay with Gli-Luc/MEF cells (Smo).
For `CC(=O)N1CCN(c2ccc(Cl)c(-c3nc4ccccc4n3C)n2)CC1` [Example B-2, 2-[6-(4-acetylpiperazin-1-yl)-3-chloropyridin-2-yl]-1-methyl-1H-benzimidazole], the inhibition at 0.05 µM in assay [1] worked out at 95%. The figures for the half-inhibitory concentration (IC50) (in assay [1]; in the assay on Gli-Luc/MEF cells (Smo)) were 18 nM and 32 nM, respectively.
In the case of `CNC(=O)N1CCN(c2ccc(Cl)c(-c3nc4ccccc4n3C)n2)CC1` [Example B-3, 4-[5-chloro-6-(1-methyl-1H-benzimidazol-2-yl)pyridin-2-yl]-N-methylpiperazine-1-carboxamide], in assay [1], the inhibition at 0.05 µM was found to be 88% and the concentration for half-maximal inhibition (IC50) came to 49 nM. This compound also gave an IC50 with Gli-Luc/MEF cells (Smo) of 20 nM.
On the same counts, the results for `Cn1c(-c2nc(N3CCN(C=O)CC3)ccc2Cl)nc2ccccc21` [Example B-5, 4-[5-chloro-6-(1-methyl-1H-benzimidazol-2-yl)pyridin-2-yl]piperazine-1-carbaldehyde] are 92%, 27 nM and 27 nM.
`Cn1c(-c2nc(N3CCC(O)CC3)ccc2Cl)nc2ccccc21` [Example B-6, 1-[5-chloro-6-(1-methyl-1H-benzimidazol-2-yl)pyridin-2-yl]piperidin-4-ol]: in assay [1], the inhibition at 0.05 µM came out at 95% and the IC50 came out at 10 nM. Further, half-maximal inhibition in the assay with Gli-Luc/MEF cells (Smo) (IC50) required 12 nM.
In the case of `Cn1c(-c2cccc(N3CCN(S(C)(=O)=O)CC3)n2)nc2ccccc21` [Example B-7, 1-methyl-2-{6-[4-(methylsulfonyl)piperazin-1-yl]pyridin-2-yl}-1H-benzimidazole], in assay [1], the inhibition at 0.05 µM is 78% and the IC50 turned out to be 97 nM. In the assay with Gli-Luc/MEF cells (Smo), this compound came in with an IC50 of 189 nM.
As to `CC(=O)N1CCN(c2cccc(-c3nc4ccccc4n3C)n2)CC1` [Example B-8, 2-[6-(4-acetylpiperazin-1-yl)pyridin-2-yl]-1-methyl-1H-benzimidazole], in assay [1], the inhibition at 0.05 µM came out at 90% and the IC50 was 32 nM. The compound further had a half-maximal inhibitory concentration (IC50) in the assay on Gli-Luc/MEF cells (Smo) of 46 nM.
On to `COC(=O)N1CCN(c2cccc(-c3nc4ccccc4n3C)n2)CC1` [Example B-9, methyl 4-[6-(1-methyl-1H-benzimidazol-2-yl)pyridin-2-yl]piperazine-1-carboxylate], for which the inhibition at 0.05 µM in assay [1] was 82%. For the same compound, the IC50 in assay [1] was 122 nM; with Gli-Luc/MEF cells (Smo), 143 nM.
On the same counts, the results for `CNC(=O)N1CCN(c2cccc(-c3nc4ccccc4n3C)n2)CC1` [Example B-10, N-methyl-4-[6-(1-methyl-1H-benzimidazol-2-yl)pyridin-2-yl]piperazine-1-carboxamide] are 72%, 82 nM and 89 nM.
The corresponding values for `CC(=O)NC1CCN(c2ccc(Cl)c(-c3nc4ccccc4n3C)n2)CC1` [Example B-11, N-{1-[5-chloro-6-(1-methyl-1H-benzimidazol-2-yl)pyridin-2-yl]piperidin-4-yl}acetamide] are 98%, 16 nM and 7 nM.
The corresponding values for `Cn1c(-c2nc(N3CCC(NS(C)(=O)=O)CC3)ccc2Cl)nc2ccccc21` [Example B-12, N-{1-[5-chloro-6-(1-methyl-1H-benzimidazol-2-yl)pyridin-2-yl]piperidin-4-yl}methanesulfonamide] are 100%, 10 nM and 1 nM.
Consider `Cc1ccc(N2CCC(NS(C)(=O)=O)CC2)nc1-c1nc2ccccc2n1C` [Example B-13, N-{1-[5-methyl-6-(1-methyl-1H-benzimidazol-2-yl)pyridin-2-yl]piperidin-4-yl}methanesulfonamide], for which, in assay [1], the inhibition at 0.05 µM turned out to be 98% and the IC50 came out at 11 nM. In the assay on Gli-Luc/MEF cells (Smo), this compound displayed an IC50 of 8.2 nM.
As for `CC(=O)N1CCN(c2ncc(Cl)c(-c3nc4ccccc4n3C)n2)CC1` [Example C-1, 2-[2-(4-Acetylpiperazin-1-yl)-5-chloropyrimidin-4-yl]-1-methyl-1H-benzimidazole], in assay [1], the inhibition at 0.05 µM is 96%. Besides, the IC50 in assay [1] was 12 nM; in the assay on Gli-Luc/MEF cells (Smo) it was 7 nM.
`Cn1c(-c2nc(N3CCN(S(C)(=O)=O)CC3)ncc2Cl)nc2ccccc21` [Example C-3, 2-{5-Chloro-2-[4-(methylsulfonyl)piperazin-1-yl]pyrimidin-4-yl}-1-methyl-1H-benzimidazole]: in assay [1], the inhibition at 0.05 µM was found to be 96% and the IC50 is 9 nM. For the same compound, the IC50 with Gli-Luc/MEF cells (Smo) was determined as 19 nM.
The corresponding values for `COC(=O)N1CCN(c2ncc(Cl)c(-c3nc4ccccc4n3C)n2)CC1` [Example C-5, Methyl 4-[5-chloro-4-(1-methyl-1H-benzimidazol-2-yl)pyrimidin-2-yl]piperazine-1-carboxylate] are 96%, 14 nM and 9 nM.
The corresponding values for `CNC(=O)N1CCN(c2ncc(Cl)c(-c3nc4ccccc4n3C)n2)CC1` [Example C-7, 4-[5-Chloro-4-(1-methyl-1H-benzimidazol-2-yl)pyrimidin-2-yl]-N-methylpiperazine-1-carboxamide] are 95%, 14 nM and 18 nM.
The corresponding values for `CNC(=O)N1CCN(c2nccc(-c3nc4ccccc4n3C)n2)CC1` [Example C-8, N-Methyl-4-[4-(1-methyl-1H-benzimidazol-2-yl)pyrimidin-2-yl]piperazine-1-carboxamide] are 54%, 538 nM and 408 nM.
In the case of `Cn1c(-c2nc(N3CCC(NS(C)(=O)=O)CC3)ncc2Cl)nc2ccccc21` [Example C-9, N-{1-[5-chloro-4-(1-methyl-1H-benzimidazol-2-yl)pyrimidin-2-yl]piperidin-4-yl}methanesulfonamide], in assay [1], the inhibition at 0.05 µM came out at 100% and the IC50 was found to be 6 nM. The concentration for half-maximal inhibition (IC50) with Gli-Luc/MEF cells (Smo) came to 2 nM.
